Measurements from US5847125A, “Amino acid derivatives with anticholecystokinin activity” (James Black Foundation Limited, priority 1992, dated 1998).
Read-outs that look alike come from different tables or passages of the source.

Legend:
CCKB receptor = target: T1, CCKB receptor (Mus musculus, UniProt P56481); test: CCKB radioligand binding assay in mouse cortical membranes, [125I] CCK-8S (selectivity testing); design: species or system male mice; details: [125I] CCK-8S 200 pM, 150 min at 21°; for Ki: pH 7.2, non-specific binding L-365,260, read-out: pKi CCKB (converted)
T1 construct: CCKB receptor in mouse cortical membranes; from tissue; host or cells: mouse cerebral cortex membranes (male mice, Charles River)
T1 sequence (P56481 1-453): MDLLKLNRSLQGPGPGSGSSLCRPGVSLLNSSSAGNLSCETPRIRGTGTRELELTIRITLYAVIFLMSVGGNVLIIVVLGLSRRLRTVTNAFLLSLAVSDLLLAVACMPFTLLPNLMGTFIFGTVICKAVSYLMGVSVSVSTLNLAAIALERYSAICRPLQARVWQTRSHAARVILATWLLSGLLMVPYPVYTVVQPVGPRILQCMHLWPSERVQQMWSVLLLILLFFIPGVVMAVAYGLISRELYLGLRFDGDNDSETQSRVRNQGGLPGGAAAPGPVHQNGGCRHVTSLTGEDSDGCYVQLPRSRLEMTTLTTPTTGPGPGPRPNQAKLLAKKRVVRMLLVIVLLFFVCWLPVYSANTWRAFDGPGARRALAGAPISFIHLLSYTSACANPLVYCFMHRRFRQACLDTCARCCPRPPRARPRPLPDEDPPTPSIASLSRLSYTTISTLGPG
Procedure: The compounds were assayed for selectivity with respect to the CCKB receptor in mouse cortical membranes by means of a radioligand binding assay. The procedure was as follows:
The whole brains from male mice (CDI 22-25 g; Charles River) were removed and placed in ice-cold buffer (pH 7.2 at 21°±3° C.) of the following composition (mM); 10 HEPES, 130 NaCl, 4.7 KCl, 5 MgCl2, 1 EDTA and containing 0.25 g. 1^-1 bacitracin.
The cortex was dissected, weighed and homogenised in 40 ml ice-cold buffer using a Teflon-in-glass homogeniser. The homogenate was centrifuged at 39,800 g for 20 min at 4° C., the supernatant discarded and the pellet resuspended by homogenisation in fresh buffer. The homogenate was recentrifuged (39,800 g; 20 min at 4° C.) and the final pellet was resuspended in HEPES buffer to give a tissue concentration of 2 mg ml^-1 (original wet weight).
The membranes (400 μl) were incubated for 150 min at 21°±3° C. in a final volume of 0.5 ml with HEPES buffer containing [^125 I] CCK-8S (0.05 ml; 200 pM NEN 2200Ci.mmol^-1) and competing compound. Total and non-specific binding of [^125 I] CCK-8S were defined using 0.05 ml of buffer and 0.05 ml of 10 mM L-365,260, respectively. The assay was terminated by rapid filtration through pre-soaked Whatman GF/B filters using a Brandell Cell harvester. The filters were washed (3×3 ml) with ice-cold 50 mM Tris-HCl (pH 7.4 at 4° C.) and bound radioactivity determined by counting (1 min.) in a gamma counter.

[1] = target: T2, CCK (gallbladder) receptor (Cavia porcellus, UniProt Q63931); test: CCK-receptor bioassay, isolated guinea-pig gall-bladder strip preparations, CCK-8 as agonist; format: cell-based, male Dunkin-Hartley guinea-pigs; details: negative log10 of equilibrium dissociation constant, guinea-pig gall-bladder strips, CCK-8 agonist, test compound incubated for 60 minutes, 37° C; for Kb: read-out: pKB versus CCK (gallbladder) (converted)
T2 construct: Isolated, strip preparations were prepared from gall-bladders removed from male Dunkin-Hartley guinea-pigs; from tissue; host or cells: guinea-pig gall-bladder strips
T2 sequence (Q63931 1-430): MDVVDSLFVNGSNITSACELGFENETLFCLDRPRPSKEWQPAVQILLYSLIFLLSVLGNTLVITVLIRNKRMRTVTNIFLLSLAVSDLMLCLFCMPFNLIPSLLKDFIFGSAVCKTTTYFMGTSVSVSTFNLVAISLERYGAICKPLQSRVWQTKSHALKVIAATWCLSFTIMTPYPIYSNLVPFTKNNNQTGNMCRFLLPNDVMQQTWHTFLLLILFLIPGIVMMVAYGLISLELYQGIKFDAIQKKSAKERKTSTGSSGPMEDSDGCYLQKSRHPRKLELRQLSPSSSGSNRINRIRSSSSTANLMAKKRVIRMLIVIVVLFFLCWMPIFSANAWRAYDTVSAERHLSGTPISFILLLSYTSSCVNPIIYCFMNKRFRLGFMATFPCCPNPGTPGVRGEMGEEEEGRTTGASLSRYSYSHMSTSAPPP
Procedure: The compounds of the examples were assayed using a CCK-receptor bioassay as follows:
Isolated, strip preparations were prepared from gall-bladders removed from male Dunkin-Hartley guinea-pigs (250-500 g body weight) according to the method of La Morte, W. W., et al., J.P.E.T., 217, (3), 638-644 (1981).
The complete gall-bladder is removed and opened along the longitudinal axis. Strips measuring 3 mm in the longitudinal axis and 1 mm in the transverse axis are cut and then tied with cotton to stainless steel wires. The preparation is connected to a GRASS FTO3 isometric transducer under an initial loading tension of 1 g and is immersed in 20 mls of Krebs solution maintained at 37° C. and gassed with 95% O2 /5% CO2. The Krebs solution is as detailed above in connection with the fundus assay, except that the Ca^2+ concentration is decreased to 0.5 mM. After 30 mins the preparation is washed. Drug addition begins after an initial 90 min stabilisation period. Responses are measured as changes in tension from that immediately prior to any drug addition. Single cumulative agonist concentration-effect curves, using CCK-8 as agonist, are obtained on each preparation in the absence and presence of test compound which has been incubated for 60 minutes. The antagonist activity of the test compound is estimated and expressed as the negative logarithm (base 10) of the equilibrium dissociation constants (pKB) using the modifications of standard competitive analysis described by Black et al., Br. J. Pharmacol.,86,571-579, (1985) and Shankley et al., Br. J. Pharmacol.,94,264-274 (1988).

CCKA = target: T3, CCKA (Cavia porcellus, UniProt Q63931); test: CCKA binding assay, pancreas membranes, [125I]-CCK8(S); design: species or system male guinea-pigs (Dunkin Hartley)
T3 construct: The pancreatata were removed from male guinea-pigs (200-300 g; Dunkin Hartley); from tissue; host or cells: guinea-pig pancreas membranes
T3 sequence (Q63931 1-430): T2 sequence (Q63931 1-430)
Procedure: The compounds of the examples were also tested in a CCKA binding assay as follows:
The pancreatata were removed from male guinea-pigs (200-300 g; Dunkin Hartley) and placed in ice-cold HEPES buffer (pH 7.2@21°±3°). The pancreatata were homogenised in 40 ml ice-cold HEPES buffer using a polytron (Brinkmann, PT10, setting 10) 4×1 second. The homogenate was centrifuged at 39,800 g for 15 min at 4°. The supernatant was discarded and the pellet re-suspended using a Teflon-in-glass homogeniser in 20 volumes of fresh buffer and re-centrifuged as above. The final pellet was re-suspended using a Teflon-in-glass homogeniser to a tissue concentration of 1 mg ml^31 1 (original wet weight), and filtered through 500 μm pore-size Nytex mesh.
The membranes (400 μl; containing 0.375 μM PD134,308) are incubated for 150 minutes at 21°±3° in a final volume of 0.5 ml with HEPES buffer containing [^125 I]--CCK8 (S) (50 μl; 200 pM) and competing compound. Total and non-specific binding of [^125 I]--CCK8 (S) are defined using 50 μl of buffer and 50 μl of 100 nM L-364,718 respectively. The assay is terminated by rapid filtration through pre-soaked Whatman GF/B filters using a Brandell Cell Harvester. The filters were washed (3×3 ml) with ice-cold 50 mM Tris HCl (pH 7.4 at 4°) and bound radioactivity is determined by counting (1 min) in a gamma counter.

[2] = guinea-pig pancreas membranes, [125I]-CCK8(S) 200 pM, 0.375 μM PD134,308, 150 minutes at 21°, non-specific binding 100 nM L-364,718, read-out: pKi CCKλ (converted)

SMILES: CCCCCN(CCCCC)C(=O)[C@H](CC(=O)O)NS(=O)(=O)c1ccc2ccccc2c1 [Example 1, 2-Naphthalenesulphonyl-L-aspartyl dipentylamide]
- Ki (CCKB receptor): 7940 nM
- Kb [1]: 200 nM
- Ki (CCKA; [2]): 251 nM

SMILES: CCCCCN(CCCCC)C(=O)[C@@H](CCC(=O)O)NS(=O)(=O)c1ccc2ccccc2c1 [Example 2, 2-Naphthalenesulphonyl D-glutamyl dipentylamide]
- Ki (CCKB receptor): 3980 nM
- Kb [1]: 1000 nM
- Ki (CCKA; [2]): 158 nM

SMILES: CCCCN(CCCC)C(=O)[C@H](CC(=O)O)NS(=O)(=O)c1ccc2ccccc2c1 [Example 3, 2-Naphthalenesulphonyl-L-aspartyl dibutylamide]
- Ki (CCKB receptor): 25100 nM
- Kb [1]: 631 nM
- Ki (CCKA; [2]): 1000 nM

SMILES: CCCCCCN(CCCCCC)C(=O)[C@H](CC(=O)O)NS(=O)(=O)c1ccc2ccccc2c1 [Example 4, 2-Naphthalenesulphonyl-L-aspartyl dihexylamide]
- Ki (CCKB receptor): 5010 nM
- Kb [1]: 158 nM
- Ki (CCKA; [2]): 126 nM

SMILES: CCCCCNC(=O)[C@H](CC(=O)O)NS(=O)(=O)c1ccc2ccccc2c1 [Example 5, 2-Naphthalenesulphonyl-L-aspartyl pentylamide]
- Ki (CCKB receptor): 100000 nM
- Kb [1]: 398 nM
- Ki (CCKA; [2]): 1000 nM

SMILES: CC(C)(C)CCNC(=O)[C@H](CC(=O)O)NS(=O)(=O)c1ccc2ccccc2c1 [Example 6, 2-Naphthalenesulphonyl-L-aspartyl (3,3-dimethyl)-butylamide]
- Ki (CCKB receptor): 25100 nM
- Kb [1]: 501 nM
- Ki (CCKA; [2]): 501 nM

SMILES: CCCCCCN(C)C(=O)[C@H](CC(=O)O)NS(=O)(=O)c1ccc2ccccc2c1 [Example 7, 2-Naphthalenesulphonyl-L-aspartyl N-(methyl)hexylamide]
- Ki (CCKB receptor): 50100 nM
- Kb [1]: 316 nM
- Ki (CCKA; [2]): 3160 nM

SMILES: CCCCCN(CCCOC)C(=O)[C@H](CC(=O)O)NS(=O)(=O)c1ccc2ccccc2c1 [Example 8, 2-Naphthalenesulphonyl-L-aspartyl N-(3-methoxypropyl)pentylamide]
- pKi CCKB (CCKB receptor; pH 7.2, non-specific binding L-365,260): 4.4
- pKB versus CCK (gallbladder) [1]: 6.7
- pKi CCKλ (CCKA; guinea-pig pancreas membranes, [125I]-CCK8(S) 200 pM, 0.375 μM PD134,308, 150 minutes at 21°, non-specific binding 100 nM L-364,718): 5.6

SMILES: CCCCCC(CCCCC)NC(=O)[C@H](CC(=O)O)NS(=O)(=O)c1ccc2ccccc2c1 [Example 9, 2-Naphthalenesulphonyl-L-aspartyl (1-pentyl)hexylamide]
- Ki (CCKB receptor): 3980 nM
- Kb [1]: 200 nM
- Ki (CCKA; [2]): 398 nM

SMILES: O=C(O)C[C@H](NS(=O)(=O)c1ccc2ccccc2c1)C(=O)NCC12CC3CC(CC(C3)C1)C2 [Example 10, 2-Naphthalenesulphonyl-L-aspartyl 1-adamantylmethylamide]
- Ki (CCKB receptor): 6310 nM
- Kb [1]: 63.1 nM
- Ki (CCKA; [2]): 50.1 nM

SMILES: O=C(O)C[C@H](NS(=O)(=O)c1ccc2ccccc2c1)C(=O)NCCC1CCCCC1 [Example 11, 2-Naphthalenesulphonyl-L-aspartyl 2-cyclohexylethylamide]
- Ki (CCKB receptor): 25100 nM
- Kb [1]: 79.4 nM
- Ki (CCKA; [2]): 158 nM

SMILES: O=C(O)C[C@H](NS(=O)(=O)c1ccc2ccccc2c1)C(=O)NCCC12CC3CC(CC(C3)C1)C2 [Example 12, 2-Naphthalenesulphonyl-L-aspartyl 2-(1-adamantyl) ethylamide]
- Ki (CCKB receptor): 7940 nM
- Kb [1]: 50.1 nM
- Ki (CCKA; [2]): 126 nM

SMILES: O=C(O)C[C@H](NS(=O)(=O)c1ccc2ccccc2c1)C(=O)N1CCC2(CCCC2)CC1 [Example 13, 2-Naphthalenesulphonyl-L-aspartyl 3-azaspiro[5.4]decylamide]
- Ki (CCKB receptor): 10000 nM
- Kb [1]: 6310 nM
- Ki (CCKA; [2]): 6310 nM

SMILES: O=C(O)C[C@H](NS(=O)(=O)c1ccc2ccccc2c1)C(=O)N1CCC2(CC1)OCCO2 [Example 14, 2-Naphthalenesulphonyl-L-aspartyl 1,4-dioxa-8-azaspiro-[5.4]decylamide]
- Ki (CCKA): 10000 nM

SMILES: O=C(O)C[C@H](NS(=O)(=O)c1ccc2ccccc2c1)C(=O)N1CC2CCC(CC2)C1 [Example 15, 2-Naphthalenesulphonyl-L-aspartyl 3-azabicyclo-[3.2.2]nonylamide]
- Ki (CCKB receptor): 25100 nM
- Ki (CCKA; [2]): 10000 nM

SMILES: O=C(O)C[C@H](NS(=O)(=O)c1ccc2ccccc2c1)C(=O)NC1CCCCCCCCCCC1 [Example 16, 2-Naphthalenesulphonyl-L-aspartyl cyclododecylamide]
- Ki (CCKB receptor): 10000 nM
- Kb [1]: 79.4 nM
- Ki (CCKA; [2]): 39.8 nM

SMILES: CCCCC(CC)CN(CC(CC)CCCC)C(=O)[C@H](CC(=O)O)NS(=O)(=O)c1ccc2ccccc2c1 (stereo partly drawn) [Example 17, 2-Naphthalenesulphonyl-L-aspartyl di(2-ethyl)hexylamide]
- Ki (CCKB receptor): 2000 nM
- Ki (CCKA; [2]): 1260 nM

SMILES: CCCCCOC(=O)[C@H](CC(=O)O)NS(=O)(=O)c1ccc2ccccc2c1 [Example 20, 2-Naphthalenesulphonyl-L-aspartyl pentyl ester]
- Ki (CCKB receptor): 20000 nM
- Ki (CCKA; [2]): 2000 nM
